Experiments:
Experiment in all cases: relative viability (nuclei count vs DMSO), 5 days (fraction); higher = more cells survive
Dabrafenib + Foretinib = compound: CC(C)(C)c1nc(-c2cccc(NS(=O)(=O)c3c(F)cccc3F)c2F)c(-c2ccnc(N)n2)s1 [Dabrafenib] + COc1cc2c(Oc3ccc(NC(=O)C4(C(=O)Nc5ccc(F)cc5)CC4)cc3F)ccnc2cc1OCCCN1CCOCC1 [Foretinib] (partner 0.25 µM)
Procedure, shortened: (§1)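 Relative viability is defined as nuclei in treated wells over nuclei in vehicle wells. Duplicate plates were run and medians reported. Lung cancer cell lines in 1536-well plates were dosed by pin tool one day after seeding, with one drug or with a fixed anchor-drug dose plus five library-drug doses (not always all listed) in √10 steps, and nuclei were counted after 5 days.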

Dabrafenib + Pictilisib = compound: CC(C)(C)c1nc(-c2cccc(NS(=O)(=O)c3c(F)cccc3F)c2F)c(-c2ccnc(N)n2)s1 [Dabrafenib] + CS(=O)(=O)N1CCN(Cc2cc3nc(-c4cccc5[nH]ncc45)nc(N4CCOCC4)c3s2)CC1 [Pictilisib] (partner 1 µM)
Procedure, shortened: as §1

VX-702 + Tozasertib = compound: NC(=O)c1ccc(N(C(N)=O)c2c(F)cccc2F)nc1-c1ccc(F)cc1F [VX-702] + Cc1cc(Nc2cc(N3CCN(C)CC3)nc(Sc3ccc(NC(=O)C4CC4)cc3)n2)n[nH]1 [Tozasertib] (partner 0.1 µM)
Procedure, shortened: as §1

VX-702 + Olaparib = compound: NC(=O)c1ccc(N(C(N)=O)c2c(F)cccc2F)nc1-c1ccc(F)cc1F [VX-702] + O=C(c1cc(Cc2n[nH]c(=O)c3ccccc23)ccc1F)N1CCN(C(=O)C2CC2)CC1 [Olaparib] (partner 8 µM)
Procedure, shortened: as §1

Row | Cell Line | relative viability (Dabrafenib + Foretinib; first compound 0.003 µM) | relative viability (Dabrafenib + Foretinib; first compound 0.009487 µM) | relative viability (Dabrafenib + Foretinib; first compound 0.03 µM) | relative viability (Dabrafenib + Foretinib; first compound 0.09487 µM) | relative viability (Dabrafenib + Foretinib; first compound 0.3 µM) | relative viability (Dabrafenib + Pictilisib; first compound 0.003 µM) | relative viability (Dabrafenib + Pictilisib; first compound 0.009487 µM) | relative viability (Dabrafenib + Pictilisib; first compound 0.03 µM) | relative viability (Dabrafenib + Pictilisib; first compound 0.09487 µM) | relative viability (Dabrafenib + Pictilisib; first compound 0.3 µM) | relative viability (VX-702 + Tozasertib; first compound 0.02 µM) | relative viability (VX-702 + Tozasertib; first compound 0.2 µM) | relative viability (VX-702 + Tozasertib; first compound 0.6325 µM) | relative viability (VX-702 + Tozasertib; first compound 2 µM) | relative viability (VX-702 + Olaparib; first compound 0.02 µM) | relative viability (VX-702 + Olaparib; first compound 0.2 µM) | relative viability (VX-702 + Olaparib; first compound 0.6325 µM) | relative viability (VX-702 + Olaparib; first compound 2 µM)
1 | 201T | 1.11 | 1.2 | 1.12 | 1.14 | 1.26 | 0.665 | 0.711 | 0.607 | 0.65 | 0.71 | 0.959 | 0.921 | 0.937 | 0.914 | 0.832 | 0.882 | 0.894 | 0.898
2 | A549 | 0.979 | 0.988 | 0.911 | 0.988 | 0.975 | 0.497 | 0.487 | 0.519 | 0.544 | 0.64 | – | – | – | – | 0.444 | 0.243 | 0.374 | 0.114
3 | A-427 | – | 1.24 | 1.14 | 0.87 | 1.01 | – | 0.611 | 0.769 | 0.522 | 0.675 | 0.241 | 0.169 | 0.232 | 0.221 | 0.779 | 0.751 | 0.725 | 0.943
4 | ABC-1 | 1.03 | 1.09 | 0.866 | 1.02 | 1.26 | – | 0.86 | 0.823 | 0.778 | 0.822 | 0.152 | 0.162 | 0.18 | 0.207 | 0.443 | 0.894 | 1.03 | 0.746
5 | BEN | – | 0.699 | – | 0.569 | 0.713 | – | 0.58 | – | 0.52 | 0.687 | 0.532 | 0.432 | 0.481 | 0.55 | 0.781 | 0.89 | 0.991 | 1.06
6 | CAL-12T | 1.07 | 1.09 | 1.11 | 1.11 | 1.44 | 0.319 | 0.392 | 0.395 | 0.57 | 0.535 | 0.369 | 0.31 | 0.273 | 0.398 | 0.798 | 0.69 | 0.711 | 0.697
7 | COR-L23 | 0.947 | 0.982 | 0.873 | 0.882 | 0.935 | 0.8 | 0.888 | 0.704 | 0.632 | 0.647 | 0.202 | 0.231 | 0.171 | 0.244 | 0.351 | 0.339 | 0.379 | 0.386
8 | COR-L 105 | 0.971 | 1.32 | 1.18 | 1.11 | 1.41 | 0.297 | 0.435 | 0.353 | 0.454 | 0.474 | 0.225 | 0.338 | 0.353 | 0.355 | 0.633 | 0.658 | 0.768 | 0.859
9 | Calu-6 | 0.878 | 0.964 | 0.84 | 0.84 | 0.654 | 0.968 | 0.913 | 0.867 | 0.715 | 0.694 | – | – | – | – | – | 0.597 | 0.65 | 0.64
10 | ChaGo-K-1 | 1.05 | 0.902 | 0.906 | 0.883 | 0.95 | – | 0.591 | 0.749 | 0.721 | 0.933 | 0.214 | 0.23 | 0.223 | 0.225 | 0.458 | 0.414 | 0.433 | 0.352
11 | EBC-1 | 0.102 | 0.0889 | 0.103 | 0.0949 | 0.108 | 0.397 | 0.37 | 0.272 | 0.184 | 0.227 | – | – | – | – | 0.82 | 0.702 | 0.653 | 0.745
12 | HCC-44 | – | – | – | – | – | 0.555 | 0.67 | 0.499 | 0.704 | 0.699 | 0.765 | 0.893 | 1.05 | 1.3 | 1.01 | 0.982 | 0.989 | 0.963
13 | IA-LM | 1.13 | 1.08 | 1.08 | 0.977 | 1.13 | 0.379 | 0.569 | 0.444 | 0.412 | 0.255 | – | – | – | – | 0.833 | 0.841 | 0.994 | 0.937
14 | NCI-H522 | – | – | – | – | – | – | – | – | – | – | 0.522 | 0.551 | 0.502 | 0.588 | 0.754 | 0.678 | 0.667 | 0.619
15 | NCI-H1299 | 1.05 | 1.09 | 1.07 | 1.03 | 1.08 | 0.74 | 0.756 | 0.797 | 0.464 | 0.441 | – | – | – | – | 0.982 | 0.924 | 0.937 | 0.862
16 | NCI-H1563 | 0.856 | 0.981 | 0.824 | 1.04 | 1.01 | 0.591 | 0.628 | 0.6 | 0.633 | 0.583 | – | – | – | – | – | – | – | –
17 | NCI-H1623 | – | 0.869 | 0.846 | 0.829 | 1.12 | – | – | – | – | – | 0.444 | 0.415 | 0.437 | 0.426 | – | – | – | –
18 | NCI-H1648 | – | – | – | – | – | – | – | – | – | – | 0.419 | 0.42 | 0.397 | 0.426 | 0.817 | 0.851 | 0.689 | 0.781
19 | NCI-H1703 | 0.354 | 0.327 | 0.34 | 0.334 | 0.447 | 0.257 | 0.255 | 0.225 | 0.249 | 0.226 | – | – | – | – | 0.415 | 0.361 | 0.315 | 0.47
20 | NCI-H1792 | – | – | – | – | – | – | 0.307 | 0.237 | 0.311 | 0.242 | – | – | – | – | 0.396 | 0.434 | 0.356 | 0.444
21 | NCI-H2342 | 1.04 | 1.18 | 0.954 | 1.09 | 1.2 | – | – | – | – | – | 0.527 | 0.468 | 0.484 | 0.524 | 0.401 | 0.457 | 0.475 | 0.466
